These molecules were tested on rabbit skeletal myofibrils (approximately 90% fast fibers) (assay: Activation of fast skeletal myofibrils (PUMA coupled-enzyme ATPase assay at pCa25)). Settings: concentration at which the compound increased the enzymatic activity by 40%; calcium at pCa25; PM12 buffer pH 6.8.
Format: biochemical
Procedure: Preparation of fast skeletal myofibrils. Rabbit skeletal myofibrils were prepared based upon the method of Herrmann et al. (Biochem. 32(28):7255-7263(1993). Myofibrils were prepared from rabbit psoas muscle purchased from Pel-Freez Biologicals (Arkansas) within 2 days of ordering, stored on ice. Minced muscle was homogenized in 10 volumes of ice-cold “standard” buffer (50 mM Tris, pH 7.4, 0.1 M potassium acetate, 5 mM KCl, 2 mM DTT, 0.2 mM PMSF, 10 μM leupeptin, 5 μM pepstatin, and 0.5 mM sodium azide) containing 5 mM EDTA and 0.5% Triton X-100 using an Omni-Macro homogenizer. Myofibrils were recovered by low speed centrifugation (3000 rpm for 10 minutes) and washed 2 times in the Triton X-100 containing buffer to ensure removal of cellular membrane. Following the Triton washes, myofibrils were washed 3 times in “standard” buffer containing 2 mM magnesium acetate. A final wash in assay buffer (12 mM PIPES, pH 6.8, 60 mM KCl, 1 mM DTT) was performed and brought to 10% sucrose for flash freezing in liquid nitrogen and storage at −80° C.
Activation of Fast Skeletal Myofibrils. Fast fiber activators were identified by measuring the enzymatic activity of muscle myofibril preparations using the proprietary PUMA™ (see, e.g., U.S. Pat. Nos. 6,410,254, 6,743,599, 7,202,051, and 7,378,254) assay system. Myofibril preparations consisted of rabbit skeletal muscle (approximately 90% fast fibers) that had been mechanically homogenized and washed with a detergent (triton X-100) to remove cellular membranes. This preparation retained all of the sarcomeric components in a native conformation and the enzymatic activity was still regulated by calcium. Compounds were tested using a myofibril suspension and a level of calcium sufficient to increase enzymatic activity of the myofibrils to 25% of their maximal rate (termed pCa25). Enzymatic activity was tracked via a pyruvate kinase and lactate dehydrogenase-coupled enzyme system. This assay regenerates myosin-produced ADP into ATP by oxidizing NADH, producing an absorbance change at 340 nm. The buffering system was 12 mM Pipes, 2 mM MgCl2, 1 mM DTT at pH 6.8 (PM12 buffer).

Row | Molecule | Mean AC1.4
1 | CC(C)(Nc1ncc(-c2cn3c(C(N)=O)csc3n2)cn1)c1ncccc1Cl | B (B=1-10 uM)
2 | CC(C)(Nc1ncc(-c2cn3c(C(=O)O)csc3n2)cn1)c1ncccc1Cl | B (B=1-10 uM)
3 | 2-{[2-(4-f1uorophenyl)-2- methylpropyl]amino}-5,6,7,8- tetrahydropyridino[4,3- d]pyrimidine-6-carboxamide | D (D=>20 uM)
4 | CC(C)(Nc1ncc(-n2cc(C#N)cn2)cn1)c1ncccc1Cl [1-(2-{[1-(3-chloro(2-pyridyl))-isopropyl]amino}pyrimidin-5-yl)pyrazole-4-carbonitrile] | D (D=>20 uM)
5 | CC(C)(Nc1ncc(-n2cc(C(N)=O)cn2)cn1)c1ncccc1Cl [1-(2-{[1-(3-chloro(2-pyridyl))-isopropyl]amino}pyrimidin-5-yl)pyrazole-4-carboxamide] | B (B=1-10 uM)
6 | CC(C)(Nc1ncc(-n2cc(C(=O)O)cn2)cn1)c1ncccc1Cl [1-(2-{[1-(3-chloro(2-pyridyl))-isopropyl]amino}pyrimidin-5-yl)pyrazole-4-carboxylic acid] | D (D=>20 uM)
7 | CC(C)(Nc1ncc(-n2ccc(C(N)=O)c2)cn1)c1ncccc1Cl [1-(2-{[1-(3-chloro(2-pyridyl))-isopropyl]amino}pyrimidin-5-yl)pyrrole-3-carboxamide] | B (B=1-10 uM)
8 | CC(C)(Nc1ncc(-n2cc(C(N)=O)cn2)cn1)c1ncccc1F [1-(2-{[1-(3-fluoro(2-pyridyl))-isopropyl]amino}pyrimidin-5-yl)pyrazole-4-carboxamide] | D (D=>20 uM)
9 | NC(=O)c1ccc(=O)n(-c2cnc(NC[C@]3(c4ncccc4F)C[C@H](F)C3)nc2)c1 [1-[2-({[3-fluoro-1-(3-fluoro(2-pyridyl))cyclobutyl]methyl)amino)pyrimidin-5-yl]-6-oxohydropyridine-3-carboxamide] | D (D=>20 uM)
10 | O=C(O)c1ccc(=O)n(-c2cnc(NC[C@]3(c4ncccc4F)C[C@H](F)C3)nc2)c1 [1-[2-({[3-fluoro-1-(3-fluoro(2-pyridyl))cyclobutyl]methyl}amino)pyrimidin-5-yl]-6-oxohydropyridine-3-carboxylic acid] | D (D=>20 uM)
11 | N#Cc1cnn(-c2cnc(NC[C@]3(c4ncccc4F)C[C@H](F)C3)nc2)c1 [1-[2-({[3-fluoro-1-(3-fluoro(2-pyridyl))cyclobutyl]methyl}amino)pyrimidin-5-yl]pyrazole-4-carbonitrile] | C (C=10-20 uM)
12 | NC(=O)c1ccn(-c2cnc(NC[C@]3(c4ncccc4F)C[C@H](F)C3)nc2)c1 [1-[2-({[3-fluoro-1-(3-fluoro(2-pyridyl))cyclobutyl]methyl}amino)pyrimidin-5-yl]pyrrole-3-carboxamide] | A (A=<1 uM)
13 | O=C(O)c1ccn(-c2cnc(NC[C@]3(c4ncccc4F)C[C@H](F)C3)nc2)c1 [1-[2-({[3-fluoro-1-(3-fluoro(2-pyridyl))cyclobutyl]methyl}amino)pyrimidin-5-yl]pyrrole-3-carboxylic acid] | D (D=>20 uM)
14 | O=c1cc(O)ccn1-c1cnc(NC[C@]2(c3ncccc3F)C[C@H](F)C2)nc1 [1-[2-({[3-fluoro--1-(3-fluoro(2-pyridyl))cyclobutyl]methyl)amino)pyrimidin-5-yl]-4-hydroxyhydropyridin-2-one] | D (D=>20 uM)
15 | NC(=O)c1cnn(-c2cnc(NCC3(c4ncccc4F)CCC3)nc2)c1 [1-[2-({[(3-fluoro-2-pyridyl)cyclobutyl]methyl}amino)pyrimidin-5-yl] pyrazole-4-carboxamide] | B (B=1-10 uM)
16 | O=C(O)c1cnn(-c2cnc(NCC3(c4ncccc4F)CCC3)nc2)c1 [1-[2-({[(3-fluoro-2-pyridyl)cyclobutyl]methyl}amino)pyrimidin-5-yl]pyrazole-4-carboxylic acid] | D (D=>20 uM)
17 | CC(C)(CNc1ncc(C(=O)NC2(C(N)=O)CC2)cn1)c1ccc(F)cc1 [1-[(2-{[2-(4-fluorophenyl)-2-methylpropyl]amino}pyrimidin-5-yl)carbonylamino] cyclopropanecarboxamide] | D (D=>20 uM)
18 | CC(C)(CNc1ncc(C(=O)NC2(C(=O)O)CC2)cn1)c1ccc(F)cc1 [1-[(2-{[2-(4-fluorophenyl)-2-methylpropyl]amino}pyrimidin-5-yl)carbonylamino] cyclopropanecarboxylic acid] | D (D=>20 uM)

Row | Molecule | Mean AC1.4
19 | CC(C)(Nc1ncc(-c2nc(C(N)=O)co2)cn1)c1ncccc1Cl [2-(2-{[1-(3-chloro(2-pyridyl))-isopropyl]amino}pyrimidin-5-yl)-1,3-oxazole-4-carboxamide] | D (D=>20 uM)
20 | CC(C)(Nc1ncc(-c2ncc(C(N)=O)o2)cn1)c1ncccc1Cl [2-(2-{[1-(3-chloro(2-pyridyl))-isopropyl]amino}pyrimidin-5-yl)-1,3-oxazole-5-carboxamide] | D (D=>20 uM)
21 | CC(C)(Nc1ncc(-c2ncc(C(=O)O)o2)cn1)c1ncccc1Cl [2-(2-{[1-(3-chloro(2-pyridyl))-isopropyl]amino}pyrimidin-5-yl)-1,3-oxazole-5-carboxylic acid] | D (D=>20 uM)
22 | CC(C)(Nc1ncc(-c2nc(C(=O)O)cs2)cn1)c1ncccc1Cl [2-(2-{[1-(3-chloro(2-pyridyl))-isopropyl]amino}pyrimidin-5-yl)-1,3-thiazole-4-carboxylic acid] | D (D=>20 uM)
23 | CC(C)(Nc1ncc(-c2ncc(C(N)=O)s2)cn1)c1ncccc1Cl [2-(2-{[1-(3-chloro(2-pyridyl))-isopropyl]amino}pyrimidin-5-yl)-1,3-thiazole-5-carboxamide] | B (B=1-10 uM)
24 | CC(C)(Nc1ncc(-c2cn3cc(C(N)=O)ccc3n2)cn1)c1ncccc1Cl [2-(2-{[1-(3-chloro(2-pyridyl))-isopropyl]amino}pyrimidin-5-yl)-4-hydroimidazo[1,2-a]pyridine-6-carboxamide] | C (C=10-20 uM)
25 | CC(C)(Nc1ncc(-c2cn3cc(C(=O)O)ccc3n2)cn1)c1ncccc1Cl [2-(2-{[1-(3-chloro(2-pyridyl))-isopropyl]amino}pyrimidin-5-yl)-4-hydroimidazo[1,2-a]pyridine-6-carboxylic acid] | D (D=>20 uM)
26 | CC(C)(Nc1ncc(-c2cn3ccc(C(N)=O)cc3n2)cn1)c1ncccc1Cl [2-(2-{[1-(3-chloro(2-pyridyl))-isopropyl]amino}pyrimidin-5-yl)-4-hydroimidazo[1,2-a]pyridine-7-carboxamide] | D (D=>20 uM)
27 | CC(C)(Nc1ncc(-c2cn3cccc(C(N)=O)c3n2)cn1)c1ncccc1Cl [2-(2-{[1-(3-chloro(2-pyridyl))-isopropyl]amino}pyrimidin-5-yl)-4-hydroimidazo[1,2-a]pyridine-8-carboxamide] | B (B=1-10 uM)
28 | CC(C)(Nc1ncc(-c2cc(C#N)ccn2)cn1)c1ncccc1Cl [2-(2-{[1-(3-chloro(2-pyridyl))-isopropyl]amino}pyrimidin-5-yl)pyridine-4-carbonitrile] | C (C=10-20 uM)
29 | CC(C)(Nc1ncc(-c2cc(C(N)=O)ccn2)cn1)c1ncccc1Cl [2-(2-{[1-(3-chloro(2-pyridyl))-isopropyl]amino}pyrimidin-5-yl)pyridine-4-carboxamide] | B (B=1-10 uM)
30 | CC(C)(Nc1ncc(-c2nc(C(=O)O)co2)cn1)c1ncccc1Cl [2-(2-{[1-(3-chloro(2-pyridyl))-isopropyl}amino}pyrimidin-5-yl)-1,3-oxazole-4-carboxylic acid] | D (D=>20 uM)
31 | CC(C)(Nc1ncc(-c2nc(C(N)=O)cs2)cn1)c1ncccc1F [2-(2-{[1-(3-fluoro(2-pyridyl))-isopropyl]amino}pyrimidin-5-yl)-1,3-thiazole-4-carboxamide] | D (D=>20 uM)
32 | CC(C)(Nc1ncc(-c2ncc(C#N)s2)cn1)c1ncccc1F [2-(2-{[1-(3-fluoro(2-pyridyl))-isopropyl]amino}pyrimidin-5-yl)-1,3-thiazole-5-carbonitrile] | D (D=>20 uM)
33 | CC(C)(Nc1ncc(-c2ncc(C(N)=O)s2)cn1)c1ncccc1F [2-(2-{[1-(3-fluoro(2-pyridyl))-isopropyl]amino}pyrimidin-5-yl)-1,3-thiazole-5-carboxamide] | D (D=>20 uM)
34 | CC(C)(Nc1ncc(-c2nccc(C(N)=O)n2)cn1)c1ncccc1F [2-(2-{[1-(3-fluoro(2-pyridyl))-isopropyl]amino}pyrimidin-5-yl)pyrimidine-4-carboxamide] | D (D=>20 uM)
35 | COc1ccnc(C(C)(C)Nc2ncc(-c3ncc(C(N)=O)s3)cn2)n1 [2-(2-{[1-(4-methoxypyrimidin-2-yl)-isopropyl]amino}pyrimidin-5-yl)-1,3-thiazole-5-carboxamide] | D (D=>20 uM)
